In US12441976B2, “Process for reducing the activity of microbial contamination in a yeast medium” (Lallemand Hungary Liquidity Management LLC, priority 2020, dated 2025):

System: contaminating wild-type microbial cells (obtained from a commercial plant)
Assay: laboratory scale model: antimicrobial treatment of pasteurized corn mash, change in pH after 12 hours
Type: cell-based
Method: A laboratory model has been developed to characterize the microbial activity of various components (in isolation and in combination). Briefly, cycloheximide and glucose are added to a pasteurized corn mash (step 010). At step 020, the pasteurized mash was supplemented with an antimicrobial composition and submitted to an acidic treatment. More specifically, at substep 021, an antimicrobial composition was added to the pasteurized mash. Then, at substep 022, contaminating wild-type microbial cells (obtained from a commercial plant) were added. Afterwards, at substep 023, the mash was submitted to an acidic treatment with sulfuric acid. The mash was held in such acidic conditions for 30 minutes at 33° C. (step 030). A base was then added to the acidic mash to increase the pH of the mixture (to a level suitable for the growth and metabolic activity of yeasts, step 040). The neutralized mash obtained after step 040 was maintained at 12 hours at 33° C. (step 050). Step 050 was used to allow, if any, the bacterial growth to measure the antimicrobial efficiency of the different treatments. At step 060, the pH and the presence of different metabolites (using HPLC) were determined.

Row | Compound | inhibition, in words (organic acid alone, 0.1% w/v, pH 3.2) | antimicrobial effectiveness, in words (100 ppm nisin added after the pH was raised to 5.5)
1 | O=CO [formate] | greater inhibition than acetate or D/L lactate only | –
2 | nisin | – | more effective than adding nisin as a part of the antimicrobial blend
